The values below come from PubChem BioAssay AID1259407 (Chemical Carcinogenesis Research Information System (CCRIS), 2018).

The source made the active and inactive calls. No rule for the calls is given here.

The series concerns CCRIS mutagenicity, Ames/micronucleus/aberration tests. The series can be described thus: CCRIS mutagenicity studies.
Where [1] appears, read: Test System: AMES SALMONELLA TYPHIMURIUM, Strain/Indicator: TA98, Metabolic Activation: NONE, Method: STANDARD PLATE.
Where [2] appears, read: Test System: AMES SALMONELLA TYPHIMURIUM, Strain/Indicator: TA98, Metabolic Activation: RAT, LIVER, S-9, AROCLOR 1254, Method: STANDARD PLATE.

Turning to `CN(C)c1ccc2nc3ccc(=[N+](C)C)cc-3sc2c1`, the mutagenic call is, setting by setting: (End Point: In vitro chromosomal aberrations, Test System: Chinese hamster ovary cells, Metabolic Activation: None) “active; positive”; (End Point: In vitro chromosomal aberrations, Test System: Chinese hamster ovary cells, Metabolic Activation: Rat, Liver, S-9, Aroclor) “active; positive”; (End Point: In vivo micronucleus, Test System: Bone marrow, Species: Mouse, Strain/Sex: B6C3F1/Male, Route: Intraperitoneal) “inactive; negative”; (End Point: In vivo micronucleus, Test System: Peripheral blood normochromatic erythrocytes, Species: Mouse, Strain/Sex: B6C3F1/Female, Route: Oral) “inactive; negative”; (End Point: In vivo micronucleus, Test System: Peripheral blood normochromatic erythrocytes, Species: Mouse, Strain/Sex: B6C3F1/Male, Route: Intraperitoneal) “inactive; negative”; (End Point: In vivo micronucleus, Test System: Peripheral blood normochromatic erythrocytes, Species: Mouse, Strain/Sex: B6C3F1/Male, Route: Oral) “inactive; negative”. Further, the mutagenic call is “active; positive” (Test System: AMES SALMONELLA TYPHIMURIUM, Strain/Indicator: TA98, Metabolic Activation: HAMSTER, LIVER, S-9, AROCLOR 1254, Method: STANDARD PLATE); “inactive; negative” under setting [1]; “active; positive” under setting [2]; “active; positive” (Test System: AMES SALMONELLA TYPHIMURIUM, Strain/Indicator: TA100, Metabolic Activation: NONE, Method: STANDARD PLATE); “active; positive” (Test System: AMES SALMONELLA TYPHIMURIUM, Strain/Indicator: TA100, Metabolic Activation: RAT, LIVER, S-9, AROCLOR 1254, Method: STANDARD PLATE); “active; positive” (Test System: Ames Salmonella typhimurium, Strain/Indicator: TA98, Metabolic Activation: Hamster, Liver, S-9, Aroclor 1254 (30%), Method: Standard plate). For the same compound, the mutagenic call by setting is: (Test System: Ames Salmonella typhimurium, Strain/Indicator: TA98, Metabolic Activation: None, Method: Preincubation) “active; positive”; (Test System: Ames Salmonella typhimurium, Strain/Indicator: TA98, Metabolic Activation: None, Method: Standard plate) “active; positive”; (Test System: Ames Salmonella typhimurium, Strain/Indicator: TA98, Metabolic Activation: Rat, Liver, S-9, Aroclor 1254 (10%), Method: Preincubation) “active; positive”; (Test System: Ames Salmonella typhimurium, Strain/Indicator: TA98, Metabolic Activation: Rat, Liver, S-9, Aroclor 1254 (30%), Method: Standard plate) “active; positive”; (Test System: Ames Salmonella typhimurium, Strain/Indicator: TA100, Metabolic Activation: Hamster, Liver, S-9, Aroclor 1254 (30%), Method: Standard plate) “active; positive”; (Test System: Ames Salmonella typhimurium, Strain/Indicator: TA100, Metabolic Activation: None, Method: Preincubation) “active; positive”. Further, the mutagenic call by setting is: (Test System: Ames Salmonella typhimurium, Strain/Indicator: TA100, Metabolic Activation: None, Method: Standard plate) “inactive; negative (ntp describes as equivocal)”; (Test System: Ames Salmonella typhimurium, Strain/Indicator: TA100, Metabolic Activation: Rat, Liver, S-9, Aroclor 1254 (10%), Method: Preincubation) “active; positive”; (Test System: Ames Salmonella typhimurium, Strain/Indicator: TA100, Metabolic Activation: Rat, Liver, S-9, Aroclor 1254 (30%), Method: Standard plate) “active; positive”; (Test System: E. coli, Strain/Indicator: WP uvrA/pKM101, Metabolic Activation: None, Method: Preincubation) “active; positive”; (Test System: E. coli, Strain/Indicator: WP uvrA/pKM101, Metabolic Activation: Rat, Liver, S-9, Aroclor 1254 (10%), Method: Preincubation) “active; positive”; (Test System: MOUSE LYMPHOMA, Strain/Indicator: L5178Y (TK+/TK-), Metabolic Activation: NONE, Method: SUSPENSION/PLATE) “active; positive”. Moreover, the mutagenic call (Test System: MOUSE LYMPHOMA, Strain/Indicator: L5178Y (TK+/TK-), Metabolic Activation: RAT, LIVER, S-9, Method: SUSPENSION/PLATE) is “active; positive”; the mutagenic call (Test System: Mouse lymphoma, Strain/Indicator: L5178Y (tk+/tk-), Metabolic Activation: None, Method: Suspension/plate) is “active; positive”; the mutagenic call (Test System: Mouse lymphoma, Strain/Indicator: L5178Y (tk+/tk-), Metabolic Activation: Rat, Liver, S-9, Aroclor 1254, Method: Suspension/plate) was “active; positive”.

Consider `COc1ccc(C(Cl)=C(c2ccc(OC)cc2)c2ccc(OC)cc2)cc1`, for which the mutagenic call is “inactive; negative” (Test System: AMES SALMONELLA TYPHIMURIUM, Strain/Indicator: TA97, Metabolic Activation: HAMSTER, LIVER, S-9, AROCLOR 1254 (10 OR 30%), Method: PREINCUBATION); “inactive; negative” (Test System: AMES SALMONELLA TYPHIMURIUM, Strain/Indicator: TA97, Metabolic Activation: NONE, Method: PREINCUBATION); “inactive; negative” (Test System: AMES SALMONELLA TYPHIMURIUM, Strain/Indicator: TA97, Metabolic Activation: RAT, LIVER, S-9, AROCLOR 1254 (10 OR 30%), Method: PREINCUBATION); “inactive; negative” (Test System: AMES SALMONELLA TYPHIMURIUM, Strain/Indicator: TA98, Metabolic Activation: HAMSTER, LIVER, S-9, AROCLOR 1254 (10 OR 30%), Method: PREINCUBATION); “inactive; negative” (Test System: AMES SALMONELLA TYPHIMURIUM, Strain/Indicator: TA98, Metabolic Activation: NONE, Method: PREINCUBATION); “inactive; negative” (Test System: AMES SALMONELLA TYPHIMURIUM, Strain/Indicator: TA98, Metabolic Activation: RAT, LIVER, S-9, AROCLOR 1254 (10 OR 30%), Method: PREINCUBATION). The mutagenic call is “inactive; negative” (Test System: AMES SALMONELLA TYPHIMURIUM, Strain/Indicator: TA100, Metabolic Activation: HAMSTER, LIVER, S-9, AROCLOR 1254 (10 OR 30%), Method: PREINCUBATION); “inactive; negative” (Test System: AMES SALMONELLA TYPHIMURIUM, Strain/Indicator: TA100, Metabolic Activation: NONE, Method: PREINCUBATION); “inactive; negative” (Test System: AMES SALMONELLA TYPHIMURIUM, Strain/Indicator: TA100, Metabolic Activation: RAT, LIVER, S-9, AROCLOR 1254 (10 OR 30%), Method: PREINCUBATION); “inactive; negative” (Test System: AMES SALMONELLA TYPHIMURIUM, Strain/Indicator: TA1535, Metabolic Activation: HAMSTER, LIVER, S-9, AROCLOR 1254 (10 OR 30%), Method: PREINCUBATION); “inactive; negative” (Test System: AMES SALMONELLA TYPHIMURIUM, Strain/Indicator: TA1535, Metabolic Activation: NONE, Method: PREINCUBATION); “inactive; negative” (Test System: AMES SALMONELLA TYPHIMURIUM, Strain/Indicator: TA1535, Metabolic Activation: RAT, LIVER, S-9, AROCLOR 1254 (10 OR 30%), Method: PREINCUBATION). Further, the mutagenic call reads like this: (Test System: AMES SALMONELLA TYPHIMURIUM, Strain/Indicator: TA1537, Metabolic Activation: HAMSTER, LIVER, S-9, AROCLOR 1254 (10%), Method: PREINCUBATION) “inactive; negative”; (Test System: AMES SALMONELLA TYPHIMURIUM, Strain/Indicator: TA1537, Metabolic Activation: HAMSTER, LIVER, S-9, AROCLOR 1254 (30%), Method: PREINCUBATION) “inactive; negative”; (Test System: AMES SALMONELLA TYPHIMURIUM, Strain/Indicator: TA1537, Metabolic Activation: NONE, Method: PREINCUBATION) “inactive; negative”; (Test System: AMES SALMONELLA TYPHIMURIUM, Strain/Indicator: TA1537, Metabolic Activation: RAT, LIVER, S-9, AROCLOR 1254 (10 OR 30%), Method: PREINCUBATION) “inactive; negative”.

Regarding `CC(=O)Nc1ccc2ccc3cccc4ccc1c2c34`, the mutagenic call runs as follows: (Test System: AMES SALMONELLA TYPHIMURIUM, Strain/Indicator: TA98(1,8-DNP6), Metabolic Activation: NONE, Method: STANDARD PLATE) “inactive; negative”; (Test System: AMES SALMONELLA TYPHIMURIUM, Strain/Indicator: TA98(1,8-DNP6), Metabolic Activation: RAT, LIVER, S-9, AROCLOR 1254, Method: STANDARD PLATE) “inactive; negative”; (Test System: AMES SALMONELLA TYPHIMURIUM, Strain/Indicator: TA98(NR), Metabolic Activation: NONE, Method: STANDARD PLATE) “inactive; negative”; (Test System: AMES SALMONELLA TYPHIMURIUM, Strain/Indicator: TA98(NR), Metabolic Activation: RAT, LIVER, S-9, AROCLOR 1254, Method: STANDARD PLATE) “active; positive”; under setting [1], “inactive; negative”; under setting [2], “active; positive”.
